We go through one molecule from patent US8962576B2, “Compositions and method for improving endothelial function and cardiovascular health” (Natreon, Inc., priority 2012, dated 2015).

What all share (assay type): in vivo, human
Test [1] relates to Type 2 Diabetic Subjects. Kind of test: Endothelial function: reflection index (RI), salbutamol challenge test, study (a). The conditions noted are these: Sensoril or Capros 250 mg twice daily, Atorvastatin 10 mg at night; for Abs Change in RI(%) Post Salbutamol challenge: n = 10. An excerpt:
Procedure for Assessment of Endothelial Function by Determination of Reflection Index (RI).
(§1) A salbutamol (albuterol) challenge test employing digital volume plethysmography was used to assess endothelial function as reported by Chowienczyk et al., “Photoplethysmographic assessment of pulse wave reflection: blunted response to endothelium dependant beta 2-adrenergic vasodilation in type 2 diabetes mellitus,” J. Am. Coll. Cardiol. (1999 December) 34(7):2007-14; and Naidu, et al., “Comparison of two β2 adrenoceptor agonists by different routes of administration to assess human endothelial function,” Indian J. Pharmacol. (2007) 39:168-9. The patients were examined in supine position after 5 minutes of rest. A digital volume pulse (DVP) was obtained using a photo plethysmograph (Pulse Trace PCA2, PT200, Micro Medical, Gallingham, Kent, UK) transmitting infrared light at 940 nm, placed on the index finger of the right hand. The signal from the plethysmograph was digitized using a 12 bit analogue to digital converter with a sampling frequency of 100 Hz. DVP waveforms were recorded over 20 second period and the height of the late systolic/early diastolic portion of the DVP was expressed as a percentage of the amplitude of the DVP to yield the reflection index (RI), per the procedure described in detail by Millasseau et al., “Determination of age related increases in large artery stiffness by digital pulse contour analysis,” Clinical Science (2002) 103: 371-377. Three DVP recordings were taken, and measurements of reflection index (RI) were calculated and the mean value was determined. Patients were then administered 400 μg of salbutamol by inhalation. After 15 minutes three measurements of RI were obtained again and the difference in mean RI before and after administration of salbutamol was used for assessing endothelial function. A change of ≦6% in RI post-salbutamol was considered as endothelial dysfunction.

Test [2] concerns Type 2 Diabetic Subjects. The test can be described thus: Biomarkers of oxidative stress (NO, MDA, Glutathione), study (a). Particulars: Sensoril or Capros 250 mg twice daily, Atorvastatin 10 mg at night; for Glutathione / MDA / NO: n = 10. The protocol:
[…]. (April 2004) 36(2): 76-79. Glutathione levels were determined as described in G. L. Ellman, Arch. Biochem. Biophys. (1959) 82: 70-77 (original determination). Nitric oxide levels were estimated spectrophotometrically as described in Miranda, et al., “A Rapid, Simple Spectrophotometric Method for Simultaneous Detection of Nitrate and Nitrite,” NITRIC OXIDE: Biology and Chemistry (2001) Vol. 5, No. 1, pp. 62-71.

The test system of another test is platelet aggregation. The test can be described thus: Platelet aggregation with ADP, dual channel aggregometer, study (a). The protocol:
Evaluation of Platelet Aggregation.
The platelet aggregation was determined by the following procedure using Wheecon chronologue dual channel platelet aggregometer (Wheecon Instruments Pvt. Ltd., Chemai, Tamilnadu, India). The percentage decrease in platelet aggregation was recorded at baseline and 3 hours post treatment. Approximately 9 ml of blood sample was collected in a 10 ml plastic test tube containing 1 ml of 3.8% Sodium Citrate from the cubital vein of the subject at baseline and after 3 hours post treatment in all the groups. The test was performed immediately within a time period of one and half hours from collection. The samples were centrifuged at 800 rpm for 15 minutes to obtain a platelet-rich plasma. A portion of the same sample was centrifuged at 2500 rpm for 10 minutes so as to get a platelet-poor plasma sample. The aggregometer was switched about 30 minutes before the test to allow the heating block to warm up to 37° C. Then the test was performed in duplicate by taking 0.5 ml of platelet-rich plasma using 5 μl of adenosine di-phosphate (ADP) solution (2 μgm/ml) in cuvettes containing magnetic stir bars. The speed of stir bars were adjusted at 1200 rpm so as to facilitate the aggregation of the platelets. The platelet-poor plasma sample was kept as reference. The readings were recorded at baseline and after treatment with ADP. The percentage aggregation at baseline and the percentage inhibition of platelet aggregation on post treatment with all the four treatments was calculated.

Test [3] relates to Type 2 Diabetic Subjects. The test can be described thus: Marker of endothelial function: reflection index (RI), study (c). Particulars: CAPROS 250 mg twice daily, Atorvastatin 10 mg daily, n = 20.
From the text: as §1
Study (c) design. […]

Several values for one entry are separate records, joined by “and”; a condition that tells them apart may be missing. Equal values may be shown once.

Consider `CC(C)c1c(C(=O)Nc2ccccc2)c(-c2ccccc2)c(-c2ccc(F)cc2)n1CC[C@@H](O)C[C@@H](O)CC(=O)O` [Atorvastatin], for which, in the test with Type 2 Diabetic Subjects [1] (Post treatment, 12 weeks), the “Abs Change in RI(%) Post Salbutamol challenge” value is −11.04% and −11.04 ± 5.48 %. For the same molecule, the “Abs Change in RI(%) Post Salbutamol challenge” value with Type 2 Diabetic Subjects [1] (Pre treatment) is −2.45% and −2.45 ± 0.64%. Also, the “Mean % change in Abs Change in RI (%) Post Salbutamol challenge” value with Type 2 Diabetic Subjects [1] (after 12 weeks of treatment) came to 336.1 ± 235.2%. Also, in the test with Type 2 Diabetic Subjects [2] (Post treatment, 12 weeks), the Glutathione is 721.6 ± 116.9 µmol/L, the MDA is 2.13 ± 0.48 nmol/mL and the NO was found to be 68.89 ± 11.54 µmol/L. In the test with Type 2 Diabetic Subjects [2] (Pre treatment), this molecule had a Glutathione of 530.8 ± 168.4 µmol/L, an MDA of 3.48 ± 0.73 nmol/mL and an NO of 42.24 ± 6.771 µmol/L. Besides, in the test on Type 2 Diabetic Subjects [2] (after 12 weeks of treatment), the “Mean % change in Glutathione” value was 51.77% and 51.77 ± 62.72%; the “Mean % change in MDA” value is −38.05% and −38.05 ± 10.43%; the “Mean % change in NO” value is 64.71% and 64.71 ± 27.25%. The “% Inhibition of Platelet Aggregation” value in the test with platelet aggregation (3 hours post treatment, ADP, n = 10) is on record as 7.11%. The same molecule showed a platelet aggregation in the test with platelet aggregation (Post treatment, 3 hours post treatment, ADP, n = 10) of 62.00±12.81%. This molecule registered a platelet aggregation in the test on platelet aggregation (Pre treatment (baseline), ADP, n = 10) of 66.50±11.00%. The “reduction of ADP induced platelet aggregation” value in the test with platelet aggregation (earlier study, results in Table V) is listed as “did not produce significant reduction”. Also, the “Absolute change in RI” value with Type 2 Diabetic Subjects [3] (12 weeks) is listed as −8.35 ± 4.17%. Also, in the test with Type 2 Diabetic Subjects [3] (Post TT, 12 weeks), the “RI(%), Mean” value is given as −11.03$ %. Also, in the test with Type 2 Diabetic Subjects [3] (Pre TT), the “RI(%), Mean” value is reported as −2.68%.
